Legend:
TbrCatL = target: T1, TbrCatL (Trypanosoma brucei rhodesiense, UniProt Q95PM0); assay: TbrCatL enzymatic inhibition assay (cleavage of fluorogenic substrate Z-FR-AMC); assay type: biochemical; conditions: for TbrCatL 0’ Inhibition: 0’ (pre-incubation time); for TbrCatL 0’ Inhibition / TbrCatL 10’ Inhibition: sheet "Screening results"; for TbrCatL 10’ Inhibition: 10’ (pre-incubation time); for TbrCatL Inhibition 0’: 0’ (no pre-incubation); for TbrCatL Inhibition 0’ / TbrCatL Inhibition 10’: sheet Screening results; for TbrCatL Inhibition 10’: 10’ (pre-incubation)
T1 construct: Conor Caffrey (University of California San Diego)
T1 sequence (Q95PM0 entry or part of it): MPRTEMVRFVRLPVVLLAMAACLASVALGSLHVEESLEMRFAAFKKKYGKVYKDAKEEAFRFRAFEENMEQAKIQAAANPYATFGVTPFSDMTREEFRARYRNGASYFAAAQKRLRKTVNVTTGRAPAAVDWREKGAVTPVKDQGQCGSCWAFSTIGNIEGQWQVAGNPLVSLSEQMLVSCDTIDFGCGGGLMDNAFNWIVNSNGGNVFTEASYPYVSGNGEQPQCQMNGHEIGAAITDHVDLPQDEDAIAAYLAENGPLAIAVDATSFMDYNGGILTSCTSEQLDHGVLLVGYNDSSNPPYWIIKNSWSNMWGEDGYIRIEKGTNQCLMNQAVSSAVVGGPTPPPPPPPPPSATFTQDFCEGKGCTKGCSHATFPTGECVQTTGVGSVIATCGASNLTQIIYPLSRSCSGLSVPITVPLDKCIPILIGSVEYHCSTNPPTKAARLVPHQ
In short: (§1)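 Recombinant enzymes assayed by Z-Phe-Arg-AMC cleavage at 25 °C, fluorescence 340/440 nm over 5–7 min, with 10 min or no enzyme–compound preincubation.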

cruzain = cruzain (Trypanosoma cruzi, UniProt P25779); assay: biochemical; conditions: for Cruzain 0’ Inhibition: 0’ (pre-incubation time); for Cruzain 0’ Inhibition / Cruzain 10’ Inhibition: sheet "Screening results"; for Cruzain 10’ Inhibition: 10’ (pre-incubation time); for Cruzain Inhibition 0’: 0’ (no pre-incubation); for Cruzain Inhibition 0’ / Cruzain Inhibition 10’: sheet Screening results; for Cruzain Inhibition 10’: 10’ (pre-incubation)
Chain of cruzain (P25779 123-337 limits assumed): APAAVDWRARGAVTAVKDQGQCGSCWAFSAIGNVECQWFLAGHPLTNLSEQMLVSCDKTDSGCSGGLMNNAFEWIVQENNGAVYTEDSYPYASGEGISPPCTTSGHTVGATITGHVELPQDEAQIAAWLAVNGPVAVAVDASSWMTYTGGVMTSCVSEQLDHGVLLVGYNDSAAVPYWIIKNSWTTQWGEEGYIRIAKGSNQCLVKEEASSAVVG
In short: as §1
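Further: at 5 µM compound concentration.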

SMILES | TbrCatL 0’ Inhibition (TbrCatL) [%] | TbrCatL 10’ Inhibition (TbrCatL) [%] | Cruzain 0’ Inhibition (cruzain) [%] | Cruzain 10’ Inhibition (cruzain) [%] | TbrCatL Inhibition 0’ (TbrCatL) [%] | TbrCatL Inhibition 10’ (TbrCatL) [%] | Cruzain Inhibition 0’ (cruzain) [%] | Cruzain Inhibition 10’ (cruzain) [%]
CCOc1ccccc1C(=O)Nc1cccc(-c2nc3ncccn3c2C)c1 [MMV019790] | 8 | -0.3 | 3.2 | 4 |  |  |  | 
Cc1cccc(-c2nc(Nc3ccncn3)c3sccc3n2)n1 [MMV688122] |  |  |  |  | 19 | -8 | -1.4 | -17
Cc1cccc(NC(=O)c2cc(S(=O)(=O)N(C)c3ccc(F)cc3)ccc2Cl)n1 [MMV676528] |  |  |  |  | -3 | 1.8 | 3.7 | 6
NC(=O)c1cc(-c2ccsc2)ccc1OCCOc1ccccc1 [MMV687138] | 0.2 | -2.4 | 2.4 | 4 |  |  |  | 
C[C@]1(COc2ccc(N3CCC(Oc4ccc(OC(F)(F)F)cc4)CC3)cc2)Cn2cc([N+](=O)[O-])nc2O1 [MMV688262] | 0.7 | -1.4 | -0.1 | -0.4 |  |  |  | 
Cc1ccc2cc(C3NC(=O)c4ccccc4N3)c(Cl)nc2c1 (stereo not drawn) [MMV019807] |  |  |  |  | 5 | 9 | 8 | 7
O=C(Nc1cccc(Cl)c1)c1cnc(N2CCN(c3ccncc3)CC2)c(Cl)c1 [MMV024406] | 3 | 20 | 17 | 25 |  |  |  | 
Cc1cc2ccccc2n1CC(=O)N1CC(C(=O)N2CCCCC2)Oc2ccccc21 (stereo not drawn) [MMV020520] |  |  |  |  | 1.6 | 10 | 4.7 | 3.4
N#Cc1nc(-c2ccccc2)oc1S(=O)(=O)c1ccc(Cl)cc1 [MMV676412] |  |  |  |  | 5.5 | -69 | 6 | -27
CCc1ccc(S(=O)(=O)Nc2cc(CN3CCN(CCC(C)C)CC3)ccc2C)cc1 [MMV688124] | -3.3 | 1 | -1.8 | 3 |  |  |  | 
CCCn1nnc(NC(=O)COc2ccc(C3CCCCC3)cc2)n1 [MMV676597] |  |  |  |  | 10 | 10 | 3 | -3.3
CC1CC1C(=O)NC1CCN(CC2(c3ccccc3)CCCCC2)CC1 (stereo not drawn) [MMV020120] |  |  |  |  | -2.3 | 3.8 | 1.3 | -0.5
CCCCS(=O)(=O)Nc1ccc2cnn(C)c2c1 [MMV687145] |  |  |  |  | -3 | -1.9 | -4.6 | -6
COc1ccc(-c2cc(NC(=O)c3ccc(F)cc3Cl)ccc2OC)cc1 [MMV676526] |  |  |  |  | -15 | -15 | -17 | -8
COc1ccc(OC)c(NCc2ccc3nc(N)nc(N)c3c2Cl)c1 [MMV675968] | 20 | 22 | 6.6 | 26 |  |  |  | 
O=C(c1ccc(NCCO)cc1)C1C[C@H]1c1ccc(Cl)cc1 (stereo partly drawn) [MMV676877] | 1.1 | 9 | 9 | 5.5 |  |  |  | 
CC(C)n1nc(-c2cc3c(Cl)cccc3[nH]2)c2c(N)ncnc21 [MMV688417] | -11 | -13 | 5.6 | -1.4 |  |  |  | 
Cc1cc(NC(=O)c2ccc(S(=O)(=O)N(Cc3ccccc3)C(C)C)cc2)no1 [MMV007133] | -7 | -11 | -3 | -4.5 |  |  |  | 

Source: article PMC9967275, “Screening the Pathogen Box to Discover and Characterize New Cruzain and TbrCatL Inhibitors” (Pathogens, 2023)
